How the values were obtained:
Assay type in all cases: biochemical
p110δ/p85α = p110δ/p85α (Homo sapiens, UniProt O00329); test: Transcreener KINASE Assay, kinase inhibition of p110δ/p85α; details: for IC50: read-out: PI3Kδ IC50; for PI3Kδ IH % @ 1 uM: 1 uM test compound
Procedure, shortened: (§1)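 Recombinant PI3K/p85α heterodimers were incubated with compound (2% DMSO final) for 80 min at room temperature in 50 mM HEPES, 100 mM NaCl, 1 mM EGTA, 0.03% CHAPS, 3 mM MgCl2, 1 mM DTT, with substrate added as a 30 uM PIP2/10 uM ATP mix. ADP was detected by competitive fluorescence polarization immunoassay.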

p110α/p85α = p110α/p85α (Homo sapiens, UniProt P42336); test: Transcreener KINASE Assay, kinase inhibition of p110α/p85α; details: 1 uM test compound
Description: PI3K kinases including p110α/p85α, p110δ/p85α and p110γ are purchased from Invitrogen, and p110β/p85α is from Millipore.
Primary screening data and IC50 values are measured using Transcreener™ KINASE Assay (Bellbrook, Catalog #3003-10K). […] It is a universal, homogenous, high throughput screening (HTS) technology using a far-red, competitive fluorescence polarization immunoassay based on the detection of ADP to monitor the activity of enzymes that catalyze group transfer reactions. Briefly, the Transcreener KINASE Assay is designed as a simple two-part, endpoint assay.
In the first step, the 25 ul kinase reaction is performed by preparing a reaction mixture containing 5 ul test compound (2% DMSO final concentration), 10 ul kinase, buffer (50 mM HEPES, 100 mM NaCl, 1 mM EGTA, 0.03% CHAPS, 3 mM MgCl2, and freshly supplemented 1 mM DTT), and 10 ul 30 uM PIP2/10 uM ATP. The plate is sealed and incubated for 80 min at room temperature. Next, 25 ul ADP detection mix is added per well. The plate is sealed again and incubated for 60 min at room temperature, and then measure fluorescence polarization by Tecan Infinite F500 Reader.
Data is analyzed and IC50s are generated using the add-in software for Microsoft Excel, Xlfit™ (version 2.0). IH %=(ADP amount under 2% DMSO-ADP amount under test compound)/ADP amount under 2% DMSO.

p110γ = p110γ (Homo sapiens, UniProt P48736); test: Transcreener KINASE Assay, kinase inhibition of p110γ; details: for PI3Kγ IH % @ 1 uM: 1 uM test compound; for IC50: read-out: PI3Kγ IC50
Procedure, shortened: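 Kinase activity is monitored as ADP formation, detected by competitive fluorescence polarization with a far-red tracer. Recombinant isoform complexes react for 80 min at room temperature before a 60 min detection step. IC50 values come from fitted dose-response data.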

p110β/p85α = p110β/p85α (Homo sapiens, UniProt P42338); test: Transcreener KINASE Assay, kinase inhibition of p110β/p85α; details: for PI3Kβ IH % @ 1 uM: 1 uM test compound; for IC50: read-out: PI3Kβ IC50
Procedure, shortened: as §1

p110α/p85α, sequence (P42336 whole entry): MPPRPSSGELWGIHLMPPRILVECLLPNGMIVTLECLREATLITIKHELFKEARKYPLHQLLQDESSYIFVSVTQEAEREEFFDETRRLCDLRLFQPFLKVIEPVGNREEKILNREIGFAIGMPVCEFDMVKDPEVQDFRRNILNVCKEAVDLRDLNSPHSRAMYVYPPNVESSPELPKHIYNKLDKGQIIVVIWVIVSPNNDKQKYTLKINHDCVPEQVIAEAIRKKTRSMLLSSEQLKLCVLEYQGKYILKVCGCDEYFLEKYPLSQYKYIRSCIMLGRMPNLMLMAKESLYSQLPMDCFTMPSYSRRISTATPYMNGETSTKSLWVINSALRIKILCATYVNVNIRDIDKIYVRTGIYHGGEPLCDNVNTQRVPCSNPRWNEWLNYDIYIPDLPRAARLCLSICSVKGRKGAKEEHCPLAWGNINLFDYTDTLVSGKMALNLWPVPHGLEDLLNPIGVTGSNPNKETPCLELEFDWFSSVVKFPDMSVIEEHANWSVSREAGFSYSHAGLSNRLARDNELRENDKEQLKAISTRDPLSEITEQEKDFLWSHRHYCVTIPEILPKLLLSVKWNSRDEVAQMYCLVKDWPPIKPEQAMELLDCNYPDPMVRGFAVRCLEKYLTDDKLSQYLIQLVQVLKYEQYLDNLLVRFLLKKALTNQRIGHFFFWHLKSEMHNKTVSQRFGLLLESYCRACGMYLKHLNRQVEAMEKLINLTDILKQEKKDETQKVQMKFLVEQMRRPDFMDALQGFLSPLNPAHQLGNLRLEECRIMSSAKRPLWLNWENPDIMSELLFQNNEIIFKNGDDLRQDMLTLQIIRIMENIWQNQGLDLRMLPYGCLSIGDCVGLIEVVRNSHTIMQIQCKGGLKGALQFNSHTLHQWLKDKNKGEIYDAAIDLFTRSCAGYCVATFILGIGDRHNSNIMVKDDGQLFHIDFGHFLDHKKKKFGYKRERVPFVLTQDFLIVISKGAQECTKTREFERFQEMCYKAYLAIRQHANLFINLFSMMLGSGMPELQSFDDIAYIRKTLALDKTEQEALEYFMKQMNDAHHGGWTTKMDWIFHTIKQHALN
p110α/p85α, sequence (P27986 whole entry partner): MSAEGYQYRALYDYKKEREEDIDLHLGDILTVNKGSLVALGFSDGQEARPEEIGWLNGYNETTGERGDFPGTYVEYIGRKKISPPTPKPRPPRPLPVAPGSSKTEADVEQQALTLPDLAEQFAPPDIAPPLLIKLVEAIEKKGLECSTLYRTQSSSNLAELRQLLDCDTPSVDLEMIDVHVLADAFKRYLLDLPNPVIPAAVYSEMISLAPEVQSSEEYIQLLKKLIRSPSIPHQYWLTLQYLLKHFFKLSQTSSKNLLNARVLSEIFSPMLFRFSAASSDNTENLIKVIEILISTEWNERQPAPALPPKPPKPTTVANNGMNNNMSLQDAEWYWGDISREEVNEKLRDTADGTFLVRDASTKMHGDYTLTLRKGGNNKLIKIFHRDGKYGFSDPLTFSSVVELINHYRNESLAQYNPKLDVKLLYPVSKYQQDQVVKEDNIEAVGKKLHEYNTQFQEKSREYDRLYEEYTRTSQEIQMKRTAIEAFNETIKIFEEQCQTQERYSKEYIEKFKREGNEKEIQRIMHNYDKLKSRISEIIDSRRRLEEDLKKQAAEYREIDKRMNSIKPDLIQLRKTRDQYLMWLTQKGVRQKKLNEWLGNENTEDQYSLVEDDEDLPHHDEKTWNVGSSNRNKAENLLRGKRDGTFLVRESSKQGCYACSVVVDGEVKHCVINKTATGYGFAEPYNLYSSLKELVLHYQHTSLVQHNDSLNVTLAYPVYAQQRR
p110β/p85α, sequence (P42338 whole entry): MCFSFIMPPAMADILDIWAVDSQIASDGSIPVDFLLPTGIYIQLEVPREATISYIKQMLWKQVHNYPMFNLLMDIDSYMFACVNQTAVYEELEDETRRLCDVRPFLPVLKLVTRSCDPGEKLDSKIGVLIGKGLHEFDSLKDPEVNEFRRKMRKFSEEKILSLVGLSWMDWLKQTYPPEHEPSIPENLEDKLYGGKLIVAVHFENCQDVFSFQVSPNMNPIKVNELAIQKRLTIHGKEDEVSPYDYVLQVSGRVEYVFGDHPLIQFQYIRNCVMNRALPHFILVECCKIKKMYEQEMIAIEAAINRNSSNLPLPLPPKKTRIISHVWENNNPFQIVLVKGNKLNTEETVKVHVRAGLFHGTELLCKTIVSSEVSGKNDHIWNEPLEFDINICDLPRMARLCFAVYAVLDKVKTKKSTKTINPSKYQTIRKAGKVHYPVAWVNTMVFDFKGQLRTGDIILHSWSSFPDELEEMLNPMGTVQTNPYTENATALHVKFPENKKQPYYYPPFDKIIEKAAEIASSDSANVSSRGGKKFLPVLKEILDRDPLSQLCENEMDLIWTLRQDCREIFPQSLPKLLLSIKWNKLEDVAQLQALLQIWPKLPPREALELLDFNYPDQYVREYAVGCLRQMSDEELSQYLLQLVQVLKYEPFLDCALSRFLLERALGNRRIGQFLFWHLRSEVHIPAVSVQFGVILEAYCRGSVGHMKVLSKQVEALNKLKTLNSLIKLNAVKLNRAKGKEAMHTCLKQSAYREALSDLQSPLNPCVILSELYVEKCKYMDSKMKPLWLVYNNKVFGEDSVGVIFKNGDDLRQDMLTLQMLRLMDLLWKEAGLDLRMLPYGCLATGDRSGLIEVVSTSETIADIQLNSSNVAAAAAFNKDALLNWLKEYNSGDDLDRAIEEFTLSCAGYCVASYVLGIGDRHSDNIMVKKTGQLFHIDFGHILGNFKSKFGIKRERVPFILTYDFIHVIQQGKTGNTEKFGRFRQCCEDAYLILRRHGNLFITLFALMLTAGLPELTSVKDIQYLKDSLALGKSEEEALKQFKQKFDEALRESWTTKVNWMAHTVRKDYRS
p110β/p85α, sequence (P27986 2-724 partner): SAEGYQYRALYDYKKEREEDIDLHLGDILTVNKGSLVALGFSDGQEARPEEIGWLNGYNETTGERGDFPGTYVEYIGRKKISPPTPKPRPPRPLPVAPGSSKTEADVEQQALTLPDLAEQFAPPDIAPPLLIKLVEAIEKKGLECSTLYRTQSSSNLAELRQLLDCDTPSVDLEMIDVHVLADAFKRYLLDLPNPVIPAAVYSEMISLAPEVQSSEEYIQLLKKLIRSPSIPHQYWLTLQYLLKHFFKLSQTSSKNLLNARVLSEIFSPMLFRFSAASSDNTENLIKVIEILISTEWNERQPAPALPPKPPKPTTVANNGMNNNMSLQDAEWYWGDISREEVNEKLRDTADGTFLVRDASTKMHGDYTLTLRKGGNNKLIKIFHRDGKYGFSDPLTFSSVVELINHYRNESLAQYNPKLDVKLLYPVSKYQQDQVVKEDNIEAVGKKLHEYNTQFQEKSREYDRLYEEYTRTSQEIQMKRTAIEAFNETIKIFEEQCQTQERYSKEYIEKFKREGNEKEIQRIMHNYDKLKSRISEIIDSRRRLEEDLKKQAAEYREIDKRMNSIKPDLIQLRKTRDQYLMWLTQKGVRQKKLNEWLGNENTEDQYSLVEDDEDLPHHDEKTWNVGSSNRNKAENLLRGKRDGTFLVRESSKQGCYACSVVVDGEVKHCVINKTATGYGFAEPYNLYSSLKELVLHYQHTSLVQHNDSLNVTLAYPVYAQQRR
p110γ, sequence (P48736 whole entry, canonical isoform): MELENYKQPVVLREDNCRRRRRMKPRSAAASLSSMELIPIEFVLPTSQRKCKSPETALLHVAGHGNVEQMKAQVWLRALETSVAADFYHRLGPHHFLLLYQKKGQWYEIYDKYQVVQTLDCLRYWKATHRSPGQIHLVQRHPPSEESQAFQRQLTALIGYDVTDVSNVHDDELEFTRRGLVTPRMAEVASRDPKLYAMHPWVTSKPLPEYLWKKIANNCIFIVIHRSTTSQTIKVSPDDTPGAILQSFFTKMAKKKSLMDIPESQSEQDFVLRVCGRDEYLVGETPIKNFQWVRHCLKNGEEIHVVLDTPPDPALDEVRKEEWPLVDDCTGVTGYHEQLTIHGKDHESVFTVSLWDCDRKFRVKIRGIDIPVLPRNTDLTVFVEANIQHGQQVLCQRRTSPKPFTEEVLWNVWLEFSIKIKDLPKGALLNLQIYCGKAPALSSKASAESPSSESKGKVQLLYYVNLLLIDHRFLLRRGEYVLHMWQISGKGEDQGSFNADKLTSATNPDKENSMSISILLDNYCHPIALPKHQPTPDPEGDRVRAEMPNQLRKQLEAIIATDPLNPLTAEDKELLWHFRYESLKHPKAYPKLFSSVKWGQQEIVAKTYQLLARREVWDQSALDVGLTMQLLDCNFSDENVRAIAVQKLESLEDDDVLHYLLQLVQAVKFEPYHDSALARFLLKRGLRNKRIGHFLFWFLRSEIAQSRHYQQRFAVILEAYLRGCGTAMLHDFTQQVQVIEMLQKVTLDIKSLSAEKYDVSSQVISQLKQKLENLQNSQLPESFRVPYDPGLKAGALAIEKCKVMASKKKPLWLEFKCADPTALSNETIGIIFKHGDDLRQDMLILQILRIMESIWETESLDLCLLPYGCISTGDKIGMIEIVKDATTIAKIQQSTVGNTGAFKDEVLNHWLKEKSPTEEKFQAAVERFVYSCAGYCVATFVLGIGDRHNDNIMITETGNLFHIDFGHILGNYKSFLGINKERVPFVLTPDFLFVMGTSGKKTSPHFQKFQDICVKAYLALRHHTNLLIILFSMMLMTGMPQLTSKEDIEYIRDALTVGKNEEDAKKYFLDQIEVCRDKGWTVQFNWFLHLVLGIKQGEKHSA

SMILES | IC50 (p110δ/p85α) | PI3Kα IH % @ 1 uM (p110α/p85α) | PI3Kγ IH % @ 1 uM (p110γ) | PI3Kβ IH % @ 1 uM (p110β/p85α) | PI3Kδ IH % @ 1 uM (p110δ/p85α) | IC50 (p110γ) | IC50 (p110β/p85α)
O=c1c2c(Cl)ccn2nc([C@@H]2CCCN2c2ncnc3[nH]cnc23)n1-c1cccc(F)c1 [Compound 38] | 3 nM | −3.3% | 93.5% | 54.8% | – | – | –
N#Cc1c(N)ncnc1N1CCC[C@H]1c1nn2ccc(Cl)c2c(=O)n1Cc1ccccn1 [Compound 69] | 9 nM | 13.0% | 68.8% | 57.8% | 99.9% | – | –
O=c1c2cccn2nc([C@@H]2CCN2c2ncnc3[nH]cnc23)n1-c1ccccc1 [Compound 7] | – | −18.6% | 16.6% | 17.7% | 50.4% | – | –
N#Cc1c[nH]c2ncnc(N3CCC[C@H]3c3nn4ccc(Cl)c4c(=O)n3-c3ccccc3)c12 [Compound 25] | 1 nM | 80.9% | 98.6% | 93.7% | >100% | – | 34 nM
Nc1ccc(-c2c[nH]c3ncnc(N4CC[C@H]4c4nn5ccc(Cl)c5c(=O)n4-c4ccccc4)c23)cn1 [Compound 101] | 3 nM | 47.8% | >100% | 81.6% | >100% | – | 138 nM
Cc1ccn2nc([C@@H]3CCCN3c3ncnc4[nH]cc(C#N)c34)n(-c3ccccc3)c(=O)c12 [Compound 42] | – | 71.8% | 91.2% | 79.8% | >100% | 5 nM | 186 nM
O=c1c2c(Cl)ccn2nc([C@@H]2C[C@H](F)CN2c2ncnc3[nH]cnc23)n1-c1ccccc1 [Compound 73, 5-chloro-2-((2S,4S)-4-fluoro-1-(9H-purin-6-yl)pyrrolidin-2-yl)-3-phenylpyrrolo[2,1-f][1,2,4]triazin-4(3H)-one] | 3 nM | 33.6% | 92.7% | 69.5% | >100% | – | 420 nM
N#Cc1c[nH]c2ncnc(N3CCC[C@H]3c3nn4ccc(Cl)c4c(=O)n3Cc3ccccc3)c12 [Compound 62] | 39 nM | 7.1% | >100% | 42.2% | 95.4% | 39 nM | –
N#Cc1c(N)ncnc1N1CCC[C@H]1c1nn2ccc(Cl)c2c(=O)n1-c1ccccc1 [Compound 32] | 1 nM | 54.5% | 94.8% | 96.7% | >100% | 8 nM | 13 nM
O=c1c2c(Cl)ccn2nc([C@@H]2CCN2c2ncnc3[nH]cnc23)n1-c1ccccc1 [Compound 29] | 84 nM | −1.5% | 72.5% | 18.5% | >100% | – | –
Cc1ccn2cc(C(C)Nc3ncnc4[nH]cc(C#N)c34)n(-c3ccccc3)c(=O)c12 (stereo not shown) [Compound 91] | 5 nM | 48.3% | 93.5% | 78.3% | >100% | 34 nM | 222 nM

The next lines start with the values.

IC50 (p110δ/p85α) | PI3Kα IH % @ 1 uM (p110α/p85α) | PI3Kγ IH % @ 1 uM (p110γ) | PI3Kβ IH % @ 1 uM (p110β/p85α) | PI3Kδ IH % @ 1 uM (p110δ/p85α) | IC50 (p110γ) | IC50 (p110β/p85α) | SMILES
1 nM | 28.4% | >100% | >100% | >100% | 10 nM | 284 nM | C[S+]([O-])c1c[nH]c2ncnc(N3CCC[C@H]3c3nn4ccc(Cl)c4c(=O)n3-c3ccccc3)c12 (stereo partly shown) [Compound 186]
1 nM | 40.3% | 96.2% | 87.8% | 99.0% | 10 nM | 86 nM | CC(Nc1ncnc2[nH]cc(C#N)c12)c1cc2ccc(Cl)n2c(=O)n1-c1cccc(F)c1 (stereo not shown) [Compound 128]
– | 14.7% | >100% | 68.7% | 98.8% | – | – | C[S+]([O-])c1c[nH]c2ncnc(N3CCC[C@H]3c3nn4ccc(Cl)c4c(=O)n3-c3ccccc3)c12 (stereo partly shown) [Compound 188]
– | 10.1% | >100% | 79.4% | >100% | 34 nM | 379 nM | O=c1c2c(Cl)ccn2nc([C@@H]2CCCN2c2ncnc3[nH]cnc23)n1-c1ccccn1 [Compound 311]
1 nM | 14.1% | >100% | 84.4% | 99.0% | 33 nM | 88 nM | C[S@+]([O-])c1c[nH]c2ncnc(N3CCC[C@H]3c3nn4ccc(Cl)c4c(=O)n3-c3ccccc3)c12 [Compound 382, 5-chloro-2-((S)-1-(5-((S)-methylsulfinyl)-7H-pyrrolo[2,3-d]pyrimidin-4-yl)pyrrolidin-2-yl)-3-phenylpyrrolo[2,1-f][1,2,4]triazin-4(3H)-one]
1 nM | 14.1% | >100% | 84.4% | 99.0% | – | – | C[S+]([O-])c1c[nH]c2ncnc(N3CCC[C@H]3c3nn4ccc(Cl)c4c(=O)n3-c3ccccc3)c12 (stereo partly shown) [Compound 187]
1 nM | 54.0% | 89.2% | 87.0% | 97.5% | 15 nM | 87 nM | Cc1ccn2nc([C@@H]3CCCN3c3ncnc(N)c3C#N)n(-c3ccccc3)c(=O)c12 [Compound 189, (S)-4-amino-6-(2-(5-methyl-4-oxo-3-phenyl-3,4-dihydropyrrolo[2,1-f][1,2,4]triazin-2-yl)pyrrolidin-1-yl)pyrimidine-5-carbonitrile]
– | 9.7% | 96.7% | 56.4% | 99.7% | – | – | CO/N=C(\C)c1c[nH]c2ncnc(N3CCC[C@H]3c3nn4ccc(Cl)c4c(=O)n3-c3ccccc3)c12 [Compound 308]
1 nM | 28.4% | >100% | >100% | >100% | 10 nM | 284 nM | C[S+]([O-])c1c[nH]c2ncnc(N3CCC[C@H]3c3nn4ccc(Cl)c4c(=O)n3-c3ccccc3)c12 (stereo partly shown) [Compound 197]
4 nM | 14.7% | >100% | 68.7% | 98.8% | 17 nM | 741 nM | C[S@@+]([O-])c1c[nH]c2ncnc(N3CCC[C@H]3c3nn4ccc(Cl)c4c(=O)n3-c3ccccc3)c12 [Compound 383, 5-chloro-2-((S)-1-(5-((R)-methylsulfinyl)-7H-pyrrolo[2,3-d]pyrimidin-4-yl)pyrrolidin-2-yl)-3-phenylpyrrolo[2,1-f][1,2,4]triazin-4(3H)-one]
1 nM | 17.4% | >100% | 82.4% | >100% | 10 nM | 323 nM | C[S+]([O-])c1c[nH]c2ncnc(N3CCC[C@H]3c3nn4ccc(Cl)c4c(=O)n3-c3cccc(F)c3)c12 (stereo partly shown) [Compound 198]
